From patent US4232150A, “Oligosaccharide precursors to substituted O-α-D and O-β-D-multigalactopyranosyl and glucopyranosyl 1→4 and 1→6 galactopyranosyl 1→6α-D-glucopyranoses” (American Cyanamid Company, priority 1979, dated 1980)
Structures can show the parent of a compound that is named as a salt.

Columns and labels:
Conditions in all cases: serial twofold dilution assay; higher well number indicates higher activity
activated human C1 = molecular target: T1, activated human C1 (Homo sapiens, UniProt P09871); experiment: Test Code 026 (C1 inhibitor); assay type: biochemical
T1 construct: functional test of fluid-phase human C2 destruction in presence of C4
T1 sequence (P09871 16-688): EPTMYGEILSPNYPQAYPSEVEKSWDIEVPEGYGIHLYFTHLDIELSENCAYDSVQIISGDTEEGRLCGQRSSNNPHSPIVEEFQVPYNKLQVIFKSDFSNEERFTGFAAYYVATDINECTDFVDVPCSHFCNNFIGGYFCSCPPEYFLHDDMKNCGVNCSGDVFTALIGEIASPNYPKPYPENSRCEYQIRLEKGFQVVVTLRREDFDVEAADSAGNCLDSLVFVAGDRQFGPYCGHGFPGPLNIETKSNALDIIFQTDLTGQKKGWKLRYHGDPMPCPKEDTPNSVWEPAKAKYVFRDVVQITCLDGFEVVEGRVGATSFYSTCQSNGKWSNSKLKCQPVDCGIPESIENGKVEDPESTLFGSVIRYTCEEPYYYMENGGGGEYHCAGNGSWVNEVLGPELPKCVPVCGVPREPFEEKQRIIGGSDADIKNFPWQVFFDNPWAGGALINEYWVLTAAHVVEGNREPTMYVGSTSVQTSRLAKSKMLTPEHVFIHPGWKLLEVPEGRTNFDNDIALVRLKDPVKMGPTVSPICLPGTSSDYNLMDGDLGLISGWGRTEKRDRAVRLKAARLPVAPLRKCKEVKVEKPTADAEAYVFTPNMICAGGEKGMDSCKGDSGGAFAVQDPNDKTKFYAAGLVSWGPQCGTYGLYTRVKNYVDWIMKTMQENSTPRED
T1 sequence (P00736 18-705 partner): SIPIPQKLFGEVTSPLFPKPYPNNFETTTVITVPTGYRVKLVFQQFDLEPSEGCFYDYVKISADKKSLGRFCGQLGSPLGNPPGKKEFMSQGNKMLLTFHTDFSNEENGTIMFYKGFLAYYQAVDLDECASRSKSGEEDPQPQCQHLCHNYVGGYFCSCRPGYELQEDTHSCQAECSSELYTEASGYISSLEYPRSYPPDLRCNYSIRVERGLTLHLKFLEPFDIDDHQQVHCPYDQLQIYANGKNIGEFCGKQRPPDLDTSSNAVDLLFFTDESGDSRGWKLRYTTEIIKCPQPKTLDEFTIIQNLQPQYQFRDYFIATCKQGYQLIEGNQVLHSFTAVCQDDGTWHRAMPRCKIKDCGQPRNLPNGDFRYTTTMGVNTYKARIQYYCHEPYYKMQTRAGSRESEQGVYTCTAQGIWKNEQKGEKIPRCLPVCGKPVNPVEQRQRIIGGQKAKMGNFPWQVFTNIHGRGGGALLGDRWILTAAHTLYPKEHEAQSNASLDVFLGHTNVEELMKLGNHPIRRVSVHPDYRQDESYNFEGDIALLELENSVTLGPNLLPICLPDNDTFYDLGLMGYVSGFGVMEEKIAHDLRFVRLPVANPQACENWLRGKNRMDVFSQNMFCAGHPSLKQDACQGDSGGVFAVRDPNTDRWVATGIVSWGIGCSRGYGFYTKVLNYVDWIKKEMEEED
T1 sequence (P02745 23-245 partner): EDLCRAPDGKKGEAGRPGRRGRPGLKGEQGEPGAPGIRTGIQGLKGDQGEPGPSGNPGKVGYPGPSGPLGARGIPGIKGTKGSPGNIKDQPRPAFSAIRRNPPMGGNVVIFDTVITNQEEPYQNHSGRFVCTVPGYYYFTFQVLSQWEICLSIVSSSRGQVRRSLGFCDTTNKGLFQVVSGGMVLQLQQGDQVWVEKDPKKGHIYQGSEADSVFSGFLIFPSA
T1 sequence (P02746 28-253 partner): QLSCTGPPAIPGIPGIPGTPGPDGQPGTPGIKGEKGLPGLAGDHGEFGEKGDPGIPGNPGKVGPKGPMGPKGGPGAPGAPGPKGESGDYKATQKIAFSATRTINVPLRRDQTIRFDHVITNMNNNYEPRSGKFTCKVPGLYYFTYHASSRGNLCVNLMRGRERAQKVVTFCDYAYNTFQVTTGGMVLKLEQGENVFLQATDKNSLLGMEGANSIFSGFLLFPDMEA
T1 sequence (P02747 29-245 partner): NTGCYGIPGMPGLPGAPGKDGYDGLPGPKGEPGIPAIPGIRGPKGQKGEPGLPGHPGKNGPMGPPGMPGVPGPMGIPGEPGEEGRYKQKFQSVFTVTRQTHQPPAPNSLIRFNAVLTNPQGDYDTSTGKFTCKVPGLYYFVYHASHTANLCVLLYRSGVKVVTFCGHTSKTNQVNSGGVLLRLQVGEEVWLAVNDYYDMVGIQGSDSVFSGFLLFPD
Excerpt: (§1) An active inhibitor protects C2 from C1 and C4; (ii) Test Cod3 035 (3-C9 inhibitor)--This test determines the ability of the late components of human complement (C3-C9) to lyse EAC 142 in the presence of appropriate dilutions of the test compound. An active inhibitor protects EAC 142 from lysis by human C3-C9; (iii) Test Code 036 (C-Shunt inhibitor)--In this test human erythrocytes rendered fragile are lysed in autologous serum via the shunt pathway activated by cobra venom factor in the presence of appropriate dilutions of the test compound. Inhibition of the shunt pathway results in failure of lysis; (iv) Forssman Vasculitis Test--Here, the well known complement dependent lesion, Forssman vasculitis, is produced in guinea pigs by intradermal injection of rabbit anti-Forssman antiserum. The lesion is measured in terms of diameter, edema and hemorrhage and the extent to which a combined index of these is inhibited by prior intraperitoneal injection of the test compound at 200 mg/kg is then reported, unless otherwise stated; (v) Forssman Shock Test--Lethal shock is produced in guinea pigs by an i.v. injection of anti-Forssman antiserum and the harmonic mean death time of treated guinea pigs is compared with that of simultaneous controls; (vi) Complement Level Reduction Test--In this test, the above dosed guinea pigs, or others, are bled for serum and the complement level is determined in undiluted serum by the capillary tube method of U.S. Pat. No. 3,876,376 and compared to undosed control guinea pigs; (vii) Cap 50 Test--Here, appropriate amounts of the test compound are added to a pool of guinea pig serum in vitro, after which the undiluted serum capillary tube assay referred to above is run. The concentration of compound inhibiting 50% is reported;
(§2) **Activity in wells, a serial dilution assay; higher well number indicate
(§3) higher activity. The serial dilutions are twofold

[1] = test system: late components of human complement (C3-C9); experiment: Test Code 035 (C3-C9 inhibitor; C-Late), lysis of EAC 142; assay type: cell-based
Excerpt: as §1, §2, §3

[2] = test system: shunt pathway activated by cobra venom factor; experiment: Test Code 036 (C-Shunt inhibitor), lysis of human erythrocytes by cobra venom factor; assay type: cell-based
Excerpt: as §1, §2, §3

Structure (SMILES) | C1 026* Wells (activated human C1) | C-Late 035* Wells [1] | Shunt Inhibition 036* Wells [2]
O=S(=O)(O)OC[C@H]1O[C@@H](OC[C@H]2O[C@H](OC[C@H]3O[C@H](OS(=O)(=O)O)[C@H](OS(=O)(=O)O)[C@@H](OS(=O)(=O)O)[C@@H]3OS(=O)(=O)O)[C@H](OS(=O)(=O)O)[C@@H](OS(=O)(=O)O)[C@H]2OS(=O)(=O)O)[C@H](OS(=O)(=O)O)[C@@H](OS(=O)(=O)O)[C@@H]1O[C@H]1O[C@H](COS(=O)(=O)O)[C@@H](O[C@H]2O[C@H](COS(=O)(=O)O)[C@@H](OS(=O)(=O)O)[C@H](OS(=O)(=O)O)[C@H]2OS(=O)(=O)O)[C@H](OS(=O)(=O)O)[C@H]1OS(=O)(=O)O [(glc →1α,4)2 glc →1β,6 gal →1α,6 heptadecakis (H-sulfate), h] [(Glc 1α,4)2 glc 1β,6 gal 1α,6 glc heptadecakis (H-sulfate) heptadecasodium salt] | +9 Wells | +2 Wells | +6 Wells
O=S(=O)(O)OC[C@H]1O[C@@H](OC[C@H]2O[C@H](OC[C@H]3OC(OS(=O)(=O)O)[C@H](OS(=O)(=O)O)[C@@H](OS(=O)(=O)O)[C@@H]3OS(=O)(=O)O)[C@H](OS(=O)(=O)O)[C@@H](OS(=O)(=O)O)[C@H]2OS(=O)(=O)O)[C@H](OS(=O)(=O)O)[C@@H](OS(=O)(=O)O)[C@@H]1O[C@H]1O[C@H](COS(=O)(=O)O)[C@@H](O[C@H]2O[C@H](COS(=O)(=O)O)[C@@H](O[C@H]3O[C@H](COS(=O)(=O)O)[C@@H](O[C@H]4O[C@H](COS(=O)(=O)O)[C@@H](O[C@H]5O[C@H](COS(=O)(=O)O)[C@@H](O[C@H]6O[C@H](COS(=O)(=O)O)[C@@H](OS(=O)(=O)O)[C@H](OS(=O)(=O)O)[C@H]6OS(=O)(=O)O)[C@H](OS(=O)(=O)O)[C@H]5OS(=O)(=O)O)[C@H](OS(=O)(=O)O)[C@H]4OS(=O)(=O)O)[C@H](OS(=O)(=O)O)[C@H]3OS(=O)(=O)O)[C@H](OS(=O)(=O)O)[C@H]2OS(=O)(=O)O)[C@H](OS(=O)(=O)O)[C@H]1OS(=O)(=O)O (stereo partly drawn) [(glc →1α,4)6 glc →1β,6 gal →1α,6 glc nonacosakis (H-sulfate)] [(Glc 1α,4)6 glc 1β,6 gal 1α,6 glc nonacosakis (H-sulfate) nonacosasalt with trimethylamine] | +10 Wells | +1 Wells | +5 Wells
O=S(=O)(O)OC[C@H]1O[C@@H](OC[C@H]2O[C@H](OC[C@H]3OC(OS(=O)(=O)O)[C@H](OS(=O)(=O)O)[C@@H](OS(=O)(=O)O)[C@@H]3OS(=O)(=O)O)[C@H](OS(=O)(=O)O)[C@@H](OS(=O)(=O)O)[C@H]2OS(=O)(=O)O)[C@H](OS(=O)(=O)O)[C@@H](OS(=O)(=O)O)[C@@H]1O[C@H]1O[C@H](COS(=O)(=O)O)[C@@H](O[C@H]2O[C@H](COS(=O)(=O)O)[C@@H](O[C@H]3O[C@H](COS(=O)(=O)O)[C@@H](O[C@H]4O[C@H](COS(=O)(=O)O)[C@@H](O[C@H]5O[C@H](COS(=O)(=O)O)[C@@H](O[C@H]6O[C@H](COS(=O)(=O)O)[C@@H](OS(=O)(=O)O)[C@H](OS(=O)(=O)O)[C@H]6OS(=O)(=O)O)[C@H](OS(=O)(=O)O)[C@H]5OS(=O)(=O)O)[C@H](OS(=O)(=O)O)[C@H]4OS(=O)(=O)O)[C@H](OS(=O)(=O)O)[C@H]3OS(=O)(=O)O)[C@H](OS(=O)(=O)O)[C@H]2OS(=O)(=O)O)[C@H](OS(=O)(=O)O)[C@H]1OS(=O)(=O)O (stereo partly drawn) [(glc →1α,4)6 glc →1β,6 gal →1α,6 nonacosakis (H-sulfate), no] [(Glc 1α,4)6 glc 1β,6 gal 1α,6 glc nonacosakis (H-sulfate) nonacosasodium salt] | +9 Wells | +3 Wells | +5 Wells
O=S(=O)(O)OC[C@H]1O[C@@H](OC[C@H]2O[C@H](OC[C@H]3O[C@H](OS(=O)(=O)O)[C@H](OS(=O)(=O)O)[C@@H](OS(=O)(=O)O)[C@@H]3OS(=O)(=O)O)[C@H](OS(=O)(=O)O)[C@@H](OS(=O)(=O)O)[C@H]2OS(=O)(=O)O)[C@H](OS(=O)(=O)O)[C@@H](OS(=O)(=O)O)[C@@H]1O[C@H]1O[C@H](COS(=O)(=O)O)[C@@H](O[C@H]2O[C@H](COS(=O)(=O)O)[C@@H](OS(=O)(=O)O)[C@H](OS(=O)(=O)O)[C@H]2OS(=O)(=O)O)[C@H](OS(=O)(=O)O)[C@H]1OS(=O)(=O)O [(glc →1α,4) 2 glc →1β,6 gal →1α,6 heptadecakis (H-sulfate), ] [(Glc 1α,4)2 glc 1β,6 gal 1α,6 glc heptadecakis (H-sulfate) heptadecasalt with trimethylamine] | +9 Wells | +1 Wells | 
O=S(=O)(O)OC[C@H]1O[C@H](OC[C@H]2OC(OS(=O)(=O)O)[C@H](OS(=O)(=O)O)[C@@H](OS(=O)(=O)O)[C@@H]2OS(=O)(=O)O)[C@H](OS(=O)(=O)O)[C@@H](OS(=O)(=O)O)[C@H]1OS(=O)(=O)O (stereo partly drawn) [Gal 1α,6 glc octakis (H-sulfate), octasodium salt] | +8 Wells |  | 
O=S(=O)(O)OC[C@H]1O[C@@H](OC[C@H]2O[C@H](OC[C@H]3O[C@H](OS(=O)(=O)O)[C@H](OS(=O)(=O)O)[C@@H](OS(=O)(=O)O)[C@@H]3OS(=O)(=O)O)[C@H](OS(=O)(=O)O)[C@@H](OS(=O)(=O)O)[C@H]2OS(=O)(=O)O)[C@H](OS(=O)(=O)O)[C@@H](OS(=O)(=O)O)[C@H]1OS(=O)(=O)O [gal →1β,6 gal →1α,6 glc undecakis -sulfate), undecasalt with] [Gal 1β,6 gal 1α,6 glc undecakis (H-sulfate), undecasalt with trimethylamine] | +9 Wells |  | 
O=S(=O)(O)OC[C@H]1O[C@@H](OC[C@H]2O[C@H](OC[C@H]3O[C@H](OS(=O)(=O)O)[C@H](OS(=O)(=O)O)[C@@H](OS(=O)(=O)O)[C@@H]3OS(=O)(=O)O)[C@H](OS(=O)(=O)O)[C@@H](OS(=O)(=O)O)[C@H]2OS(=O)(=O)O)[C@H](OS(=O)(=O)O)[C@@H](OS(=O)(=O)O)[C@H]1OS(=O)(=O)O [gal →1β,6 gal →1α,6 glc undecakis -sulfate), undecasodium sa] [Gal 1β,6 gal 1α,6 glc undecakis (H-sulfate), undecasodium salt] | +9 Wells |  | 
O=S(=O)(O)OC[C@H]1O[C@@H](OC[C@H]2O[C@H](OC[C@H]3OC(OS(=O)(=O)O)[C@H](OS(=O)(=O)O)[C@@H](OS(=O)(=O)O)[C@@H]3OS(=O)(=O)O)[C@H](OS(=O)(=O)O)[C@@H](OS(=O)(=O)O)[C@H]2OS(=O)(=O)O)[C@H](OS(=O)(=O)O)[C@@H](OS(=O)(=O)O)[C@@H]1O[C@H]1O[C@H](COS(=O)(=O)O)[C@@H](OS(=O)(=O)O)[C@H](OS(=O)(=O)O)[C@H]1OS(=O)(=O)O (stereo partly drawn) [glc →1α,4 glc →1β,6 gal →1α,6 glc tetradecakis (H-sulfate), ] [Glc 1α,4 glc 1β,6 gal 1α,6 glc tetradecakis (H-sulfate), tetradecasalt with trimethylamine] |  | +1 Wells | 
O=S(=O)(O)OC[C@H]1O[C@@H](OC[C@H]2O[C@H](OC[C@H]3O[C@H](OS(=O)(=O)O)[C@H](OS(=O)(=O)O)[C@@H](OS(=O)(=O)O)[C@@H]3OS(=O)(=O)O)[C@H](OS(=O)(=O)O)[C@@H](OS(=O)(=O)O)[C@H]2OS(=O)(=O)O)[C@H](OS(=O)(=O)O)[C@@H](OS(=O)(=O)O)[C@@H]1O[C@@H]1O[C@H](COS(=O)(=O)O)[C@@H](OS(=O)(=O)O)[C@H](OS(=O)(=O)O)[C@H]1OS(=O)(=O)O [glc →1β,4 glc →1β,6 gal →1α,6 glc tetradecakis (H-sulfate), ] [Glc 1β,4 glc 1β,6 gal 1α,6 glc tetradecakis (H-sulfate), tetradecasodium salt] | +9 Wells |  | 
O=S(=O)(O)OC[C@H]1O[C@@H](OC[C@H]2O[C@H](OC[C@H]3O[C@H](OS(=O)(=O)O)[C@H](OS(=O)(=O)O)[C@@H](OS(=O)(=O)O)[C@@H]3OS(=O)(=O)O)[C@H](OS(=O)(=O)O)[C@@H](OS(=O)(=O)O)[C@H]2OS(=O)(=O)O)[C@H](OS(=O)(=O)O)[C@@H](OS(=O)(=O)O)[C@@H]1O[C@@H]1O[C@H](COS(=O)(=O)O)[C@@H](OS(=O)(=O)O)[C@H](OS(=O)(=O)O)[C@H]1OS(=O)(=O)O [glc →1β,4 glc →1β,6 gal →1α,6 glc tetradicakis (H-sulfate), ] [Glc 1β,4 glc 1β,6 gal 1α,6 glc tetradecakis (H-sulfate), tetradecasalt with trimethylamine] | +9 Wells |  | +4 Wells
